Assay results: publication PMC6400998, “Soy Isoflavone Extract Does Not Increase the Intoxicating Effects of Acute Alcohol Ingestion in Human Volunteers” (Frontiers in Pharmacology, 2019)

Key:
clinical = details: for Tmax / Cmax: human
Procedure: (§1) The study was a randomized, single-blinded (the participants were informed that they could receive different doses of alcohol in the two sessions), and crossover clinical trial. Subjects participated in two different experimental sessions separated by at least 3 days. In one session they received a glass of water (240 mL) and 2 h later a single oral dose of alcohol was administered (0.5 g/kg, Vodka Absolut® 40°, Sweden); in the other, they were given four capsules containing a soy extract product with a glass of water (240 mL) and 2 h later the same dose of alcohol.
A commercial soy extract product (Super-Absorbable Soy Isoflavones®, hard gelatin capsules, Life-Extension, United States) was employed. According to the manufacturer each capsule contained 54 mg of total isoflavones (22 mg daidzin-daidzein, 28 mg genistin-genistein, and 4 mg glycitin-glycitein).
Ethanol was determined in blood (DRI® Ethyl Alcohol Assay, Thermo Fisher, Fremont, CA, United States) and breath (Alcotest, Dräger, Germany).

male mice = system: male mice; parameters: method as in Martin et al., 2013; details: ref Martin et al., 2013; cited from earlier work
healthy male volunteers [1] = assay: Addiction Research Center Inventory (ARCI) 49-item short form questionnaire; format: in vivo, human; details: n = 10
[2] = Pharmacokinetics of alcohol (ethanol) in plasma
Procedure: as §1
Blood samples and ethanol breath concentrations were collected at baseline (before soy extract administration), and at 2 (before ethanol administration), 2.25, 2.5, 2.75, 3, 4, 5, 6, 7, 8, 10, and 24 h after soy extract administration. Ethanol was determined in blood (DRI® Ethyl Alcohol Assay, Thermo Fisher, Fremont, CA, United States) and breath (Alcotest, Dräger, Germany). Daidzein, genistein, and the endogenous metabolite equol were determined by liquid chromatography coupled to tandem mass spectrometry (LC/MS/MS) using a validated method ([Rodríguez-Morató et al., 2015]).
Peak concentration (Cmax), time to reach peak concentrations (Tmax), and area under the concentration-time curve from 0 to 10 h (AUC0-10) from ethanol plasma concentrations over time were determined using Pharmacokinetic Functions for Microsoft Excel (Joel Usansky, Atul Desai, and Diane Tang-Liu, Department of Pharmacokinetics and Drug Metabolism, Allergan, Irvine, CA, United States).

healthy male volunteers [3] = assay: Physiological effects (vital signs: SBP, DBP, HR, oral and cutaneous facial temperature) after alcohol with or without soy extract; details: difference with respect to baseline; for FT Emax: cutaneous facial temperature
Procedure: as §1
Non-invasive systolic blood pressure (SBP), diastolic blood pressure (DBP), heart rate (HR), oral and cutaneous facial temperature (OT, FT) were repeatedly recorded at baseline, immediately before capsule administration, and at 2 (immediately before beverage administration), 2.5, 3, 4, 5, 6, 8, and 10 h after first administration. All assessments were carried out with a DinamapTM 8100-T vital signs monitor (Critikon, Tampa, FL, United States). Cutaneous facial temperature was measured at the same time with an additional monitor (Critikon, Tampa, FL, United States).
(§2) Differences with respect to baseline were calculated for vital signs (SBP, DBP, HR, and OT-FT) and subjective effects (VAS, ARCI). Maximum/peak effects (Emax) and the time to reach maximum effects (tmax) were also determined for the previously mentioned variables. The area under the curve of the concentrations from 0 to 10 h (AUC0-10 h) using the trapezoidal rule was calculated for vital signs and subjective effects.
(§3) For the statistical comparison of AUC and Emax a Student’s t-test for paired samples was employed. For tmax a non-parametric Wilcoxon test was used. A repeated measure ANOVA with two factors (treatment and time) was used to compare the time course of effects. When treatment or the treatment × time interaction was statistically significant, multiple Tukey post hoc comparisons were performed at each time point.

healthy male volunteers [4] = assay: Subjective and adverse effects by visual analog scales (VAS, 100 mm)
Procedure: as §1
Subjective effects were evaluated using a set of visual analog scales (VAS) at baseline (0 h), 2, 2.25, 2.5, 2.75, 3, 3.5, 4, 5, 6, 8, and 10 h after first administration. VAS (100 mm) were labeled with different adjectives marked at opposite ends from “not at all” to “extremely” ([Peiró et al., 2013]; [Farré et al., 2015]; [Papaseit et al., 2016]). Subjects were asked to rate effects of drunkenness, content, nausea, vertigo, dizziness, feeling of face flushing, headache, and breathing difficulty.
as §2, §3

[5] = alcohol 0.5 g/kg oral, 2 h after soy extract (four capsules) or water, Mean ± SD, n = 10
[6] = difference with respect to baseline, AUC 0-10 h, n = 10
[7] = difference with respect to baseline, peak effect, n = 10

Oc1ccc([C@H]2COc3cc(O)ccc3C2)cc1 [equol] gave a Tmax (clinical; in vivo, po, time of peak plasma concentration) of 24 h.
With O=c1c(-c2ccc(O)cc2)coc2cc(O)ccc12 [daidzein] the “time of peak plasma concentration” value (clinical; after four capsules of soy extract, oral, n = 10) was “around 6 h”, the Tmax (clinical; plasma, oral, 4 capsules, Tmax for the first peak, first of double peaks in plasma after soy extract) was 2 to 4 h and the Cmax (clinical; plasma, po, 4 capsules) was 1020 ng/mL. For the same compound, the Tmax (clinical; plasma, po, 4 capsules, time of peak plasma concentration, after four capsules of soy extract, oral, n = 10) was 6.1 h, the cocaine-reinforcing effects (male mice) was “decreased” and the cue-induced cocaine relapse (male mice) was “reduced”.
O=c1c(-c2ccc(O)cc2)coc2cc(O)cc(O)c12 [genistein] gave a Tmax (clinical; in vivo, 4 capsules, Tmax for the first peak, first of double peaks in plasma after soy extract) of 2 to 4 h, a Cmax (clinical; in vivo, po, 4 capsules) of 1040 ng/mL and a Tmax (clinical; in vivo, po, 4 capsules, time of peak plasma concentration, after four capsules of soy extract, oral, n = 10) of 7.3 h. For the same compound, the cocaine-reinforcing effects (male mice) was “decreased” and the cue-induced cocaine relapse (male mice) was “not”.
In the case of CCO [Alcohol, ethanol], the “ARCI-MBG AUC0-10” value (healthy male volunteers [1]; euphoria subscale, AUC 0-10 h) is reported as 3.4 ± 3.2, the “ARCI-MBG Emax” value (healthy male volunteers [1]; euphoria subscale, difference with respect to baseline, peak effect) is reported as 2.7 ± 3.3 and the “ARCI-LSD Emax” value (healthy male volunteers [1]; first ARCI-LSD line of Table 1 (r36), dysphoria and somatic symptoms subscale, peak effect) is reported as 5.2 ± 1.7. For the same compound, the “ARCI-LSD AUC0-10” value (healthy male volunteers [1]; first ARCI-LSD line of Table 1 (r37), AUC 0-10 h) was 43.2 ± 8.27, the “ARCI-BG ARCI-A Emax” value (healthy male volunteers [1]; line printed ARCI-BG ARCI-A (r40), peak effect) was 1.8 ± 1.686 and the “ARCI-BG ARCI-A AUC0-10” value (healthy male volunteers [1]; line printed ARCI-BG ARCI-A (r41), AUC 0-10 h) was 4.5 ± 4.47. For the same compound, the “ARCI-LSD Emax” value (healthy male volunteers [1]; second line printed ARCI-LSD in Table 1 (r38), peak effect) was 4.6 ± 1.07, the “ARCI-LSD AUC0-10” value (healthy male volunteers [1]; second line printed ARCI-LSD in Table 1 (r39), AUC 0-10 h) was 36.7 ± 5.5 and the “ARCI-PCAG AUC0-10” value (healthy male volunteers [1]; sedation subscale, AUC 0-10 h) was 14.05 ± 14.2. The “ARCI-PCAG Emax” value (healthy male volunteers [1]; sedation subscale, difference with respect to baseline, peak effect) was 3.4 ± 3.59, the “alcohol concentrations in plasma 10 h after drug administration” value ([2]; 10 h after drug administration) was “undetectable” and the “AUC0-10 of alcohol in plasma” value [2, 5] was 219.67 ± 27.2 ng/mL/h. For the same compound, the “Cmax of alcohol in plasma” value [2, 5] was 77 ± 22.25 ng/mL, the “FT Emax” value (healthy male volunteers [3]; peak effect, n = 10) was 1.59 ± 0.67 °C and the “FT Emax” value (healthy male volunteers [3]; peak effect, n = 10, listed as alcohol) was 1.59 °C. The “DBP Emax” value (healthy male volunteers [3]; diastolic blood pressure, peak effect, n = 10) was “–10.5 ± 8.72 mmHg”, the “HR Emax” value (healthy male volunteers [3]; heart rate, peak effect, n = 10) was “–1.2 ± 15.26 beats/min” and the “OT Emax” value (healthy male volunteers [3]; oral temperature, peak effect, n = 10) was “–0.23 ± 0.47”. For the same compound, the “SBP Emax” value (healthy male volunteers [3]; systolic blood pressure, peak effect, n = 10) was “–9.2 ± 11.05 mmHg”, the “reduction of DBP at 2 h” value (healthy male volunteers [3]; time course, 2 h after first administration, p < 0.05) was -2.89 and the “reduction of DBP at 3 h” value (healthy male volunteers [3]; time course, 3 h after first administration, p < 0.05) was -4.5. For the same compound, the “reduction of DBP at 4 h” value (healthy male volunteers [3]; time course, 4 h after first administration, p < 0.01) was -9.67, the “reduction of DBP at 8 h” value (healthy male volunteers [3]; time course, 8 h after first administration, p < 0.05) was -4.78 and the “VAS score for headache at 8 h” value (healthy male volunteers [4]; 8 h after first administration, p < 0.01) was 16 mm. The “VAS Content AUC0-10” value (healthy male volunteers [4]; [6]) was 29.91 ± 47.07, the “VAS Drunkenness AUC0-10” value (healthy male volunteers [4]; [6]) was 25.387 ± 35.1 and the “VAS Breathing difficulty Emax” value (healthy male volunteers [4]; [7]) was 0 mm. For the same compound, the “VAS Content Emax” value (healthy male volunteers [4]; [7]) was 23.9 ± 26.2 mm, the “VAS Dizziness Emax” value (healthy male volunteers [4]; [7]) was 10.9 ± 18.3 mm and the “VAS Drunkenness Emax” value (healthy male volunteers [4]; [7]) was 20.8 ± 19.1 mm. The “VAS Face flushing Emax” value (healthy male volunteers [4]; [7]) was 9.6 ± 14.9 mm, the “VAS Headache Emax” value (healthy male volunteers [4]; [7]) was 16.2 ± 27.9 mm and the “VAS Nausea Emax” value (healthy male volunteers [4]; [7]) was 0.8 ± 1.75 mm. The “VAS Vertigo Emax” value (healthy male volunteers [4]; [7]) was 2.2 ± 6.9 mm.
